Source: ChEMBL document CHEMBL1177668, “(-)-N-Formylanonaine from Michelia alba as a human tyrosinase inhibitor and antioxidant” (Bioorg Med Chem, 2010)
Active and inactive are the calls of the source. The calls are words filed in the database; no cut-off is given here.

Key:
[1] = system: Radical scavenging activity
Description: Antioxidant activity assessed as DPPH free radical scavenging activity after 30 mins

[2] = Antioxidant activity assessed as potassium ferric cyanide ion reducing power at 100 uM after 20 mins; type: functional
Homo sapiens [3] = species: Homo sapiens; experiment: Induction of dendritic to bipolar morphology changes in human HEMn-MP at 200 uM after 12 to 60 hrs by phase contrast microscopic analysis; type: functional
[4] = Cytotoxicity against human HEMn-MP assessed as cell death at 100 uM after 48 hrs by MTT assay
Homo sapiens [5] = species: Homo sapiens; experiment: Induction of dendritic to bipolar morphology changes in human HEMn-MP at 100 uM after 48 hrs by phase contrast microscopic analysis; type: functional
[6] = Cytotoxicity against human fibroblasts assessed as cell viability at 100 uM after 48 hrs by MTT assay; type: cell-based, Fibroblast; settings: read-out: Activity
Homo sapiens [7] = species: Homo sapiens; experiment: Reduction of melanin production in human HEMn-MP at 10 uM after 12 to 60 hrs by phase contrast microscopic analysis; type: functional
[8] = Cytotoxicity against human HEMn-MP assessed as cell death at 10 to 200 uM after 2 to 60 hrs by phase contrast microscopic analysis
Fibroblast [9] = experiment: Cytotoxicity against human fibroblasts assessed as cell viability at 200 uM after 48 hrs by MTT assay; type: cell-based
[10] = Cytotoxicity against human keratinocytes assessed as cell viability at 10 uM after 48 hrs by MTT assay; type: cell-based; settings: keratinocyte
[11] = Cytotoxicity against human fibroblasts after 48 hrs by MTT assay; type: cell-based, Fibroblast
[12] = Cytotoxicity against human HEMn-MP after 48 hrs by MTT assay; settings: HEMn-MP cells
Fibroblast [13] = experiment: Cytotoxicity against human fibroblasts assessed as cell viability at 10 uM after 48 hrs by MTT assay; type: cell-based
[14] = Cytotoxicity against human HEMn-MP assessed as cell viability at 0.01 to 10 uM after 48 hrs by MTT assay; settings: HEMn-MP cells, read-out: Activity
[15] = Cytotoxicity against human HEMn-MP assessed as cell viability at 200 uM after 48 hrs by MTT assay
Tyrosinase [16] = biological target: T1, Tyrosinase (Homo sapiens, UniProt P14679); experiment: Inhibition of tyrosinase in human HEMn-MP assessed as reduction of melanin level after 2 days by spectrophotometric analysis
T1 sequence (P14679 whole entry): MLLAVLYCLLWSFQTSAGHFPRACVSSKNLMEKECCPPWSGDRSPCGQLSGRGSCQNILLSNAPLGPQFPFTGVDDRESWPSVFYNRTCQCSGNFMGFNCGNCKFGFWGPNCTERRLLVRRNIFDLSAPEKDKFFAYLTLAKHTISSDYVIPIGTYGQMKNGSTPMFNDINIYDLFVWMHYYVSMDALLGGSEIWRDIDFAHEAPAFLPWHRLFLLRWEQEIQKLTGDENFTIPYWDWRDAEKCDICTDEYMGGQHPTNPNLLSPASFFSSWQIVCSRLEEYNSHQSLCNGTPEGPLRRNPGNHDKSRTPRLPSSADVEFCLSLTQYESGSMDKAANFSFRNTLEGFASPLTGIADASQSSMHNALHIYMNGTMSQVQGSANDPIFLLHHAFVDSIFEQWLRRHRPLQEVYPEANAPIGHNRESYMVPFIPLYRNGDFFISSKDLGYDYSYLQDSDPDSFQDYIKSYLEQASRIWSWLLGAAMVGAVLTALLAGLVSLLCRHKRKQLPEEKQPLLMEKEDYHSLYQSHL

Homo sapiens [17] = species: Homo sapiens; experiment: Induction of dendritic to bipolar morphology changes in human HEMn-MP at 10 uM after 12 to 60 hrs by phase contrast microscopic analysis; type: functional
Homo sapiens [18] = species: Homo sapiens; experiment: Reduction of melanin production in human HEMn-MP at 200 uM after 12 to 60 hrs by phase contrast microscopic analysis; type: functional
Tyrosinase [19] = biological target: T2, Tyrosinase (Agaricus bisporus, UniProt O42713)
T2 sequence (O42713 whole entry): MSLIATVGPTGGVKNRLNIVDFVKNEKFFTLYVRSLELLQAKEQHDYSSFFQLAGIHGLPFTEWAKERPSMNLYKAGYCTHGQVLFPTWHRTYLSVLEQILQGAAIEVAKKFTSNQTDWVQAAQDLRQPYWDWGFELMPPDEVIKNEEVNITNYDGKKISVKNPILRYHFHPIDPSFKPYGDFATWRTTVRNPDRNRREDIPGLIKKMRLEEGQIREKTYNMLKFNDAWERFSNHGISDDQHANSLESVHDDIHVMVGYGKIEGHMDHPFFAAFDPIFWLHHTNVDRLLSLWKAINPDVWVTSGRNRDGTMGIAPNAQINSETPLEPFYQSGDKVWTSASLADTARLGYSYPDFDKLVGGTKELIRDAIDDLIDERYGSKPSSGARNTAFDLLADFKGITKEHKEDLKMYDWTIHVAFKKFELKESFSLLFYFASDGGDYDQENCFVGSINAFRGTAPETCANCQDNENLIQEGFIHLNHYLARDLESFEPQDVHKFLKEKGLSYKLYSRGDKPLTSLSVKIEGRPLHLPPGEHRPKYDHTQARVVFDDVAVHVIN
Description: Inhibition of mushroom tyrosinase after 30 mins by spectrophotometric analysis

[20] = biological target: T3, Tyrosinase (Homo sapiens) (UniProt P14679); experiment: Inhibition of tyrosinase in human HEMn-MP assessed as oxidation of L-DOPA to dopaquinone at 100 uM after 2 days by spectrophotometric analysis
T3 sequence (whole entry): T1 sequence (P14679 whole entry)

[21] = Cytotoxicity against human keratinocytes after 48 hrs by MTT assay; type: cell-based, Keratinocyte

## O=C1O[C@H]([C@@H](O)CO)C(O)=C1O [ASCORBIC ACID]
[1]
  IC50: 52.1 µM

## COc1ccc(O)c(C(C)(C)C)c1.COc1ccc(O)cc1C(C)(C)C
[2]
  OD: 1.28

## O=CN1CCc2cc3c(c4c2[C@H]1Cc1ccccc1-4)OCO3
Homo sapiens [3]
  Activity: Active
[4]
  Activity: Toxic
Homo sapiens [5]
  Activity: Active
[1]
  IC50: 121 µM
[6]
  viability at 48 h, 100 µM: 70%
Homo sapiens [7]
  Activity: Active
[8]
  Activity: Non-toxic
[2]
  OD: 0.56
Fibroblast [9]
  Activity: Non-toxic
[10]
  Activity: Non-toxic
[11]
  CC50 at 48 h: 325 µM
[12]
  CC50 at 48 h: 735 µM
Fibroblast [13]
  Activity: Non-toxic
[14]
  viability at 48 h, 10 µM: 90%
[15]
  Activity: Toxic
Tyrosinase [16]
  EC50: 90 µM
Homo sapiens [17]
  Activity: Active
Homo sapiens [18]
  Activity: Active
Tyrosinase [19]
  IC50: 74.3 µM
[20]
  Activity: Active
[21]
  CC50 at 48 h: 355 µM
